# Tests used:
# [1] = target: Epidermal growth factor receptor (Homo sapiens, UniProt P00533, L858R/T790M); experiment: Inhibition of recombinant human GST-tagged EGFR T790M/L858R double mutant (668 to 1210 residues) expressed in baculovirus expression system using Tyr 4 as substrate incubated for 60 mins by Z'-Lyte assay
# [2] = Selectivity ratio of IC50 for HLF cells to IC50 for antiproliferative activity against human NCI-H1975 cells
# NCI-H1975 [3] = experiment: Induction of mitochondrial membrane potential loss in human NCI-H1975 cells harboring EGFR T790M/L858R mutant measured after 24 hrs by JC1 staining based fluorescence microscopic analysis; format: functional, cell-based; conditions: dose 1-10 nM
# NCI-H1975 [4] = experiment: Antimigratory activity against human NCI-H1975 cells harboring EGFR T790M/L858R mutant assessed as inhibition of cell migration at 3 nM measured after 48 hrs by phase contrast microscopic analysis relative to control; format: functional
# NCI-H1975 [5] = experiment: Induction of apoptosis in human NCI-H1975 cells harboring EGFR T790M/L858R mutant assessed as late apoptotic cells at 1 nM measured after 48 hrs by Annexin-V-FITC/propidium iodide staining based flow cytometry (reference value: 0.04%); format: functional
# NCI-H1975 [6] = experiment: Induction of apoptosis in human NCI-H1975 cells harboring EGFR T790M/L858R mutant assessed as early apoptotic cells at 10 nM measured after 48 hrs by Annexin-V-FITC/propidium iodide staining based flow cytometry (reference value: 0.82%); format: functional
# [7] = Selectivity ratio of IC50 for HEK293-A cells to IC50 for antiproliferative activity against human NCI-H1975 cells; format: toxicity, cell-based; conditions: HEK293-A cells versus NCI-H1975 cells, read-out: Ratio IC50
# NCI-H1975 [8] = experiment: Induction of apoptosis in human NCI-H1975 cells harboring EGFR T790M/L858R mutant assessed as necrotic cells at 10 nM measured after 72 hrs by Annexin-V-FITC/propidium iodide staining based flow cytometry (reference value: 0.49%); format: functional
# NCI-H1975 [9] = experiment: Induction of apoptosis in human NCI-H1975 cells harboring EGFR T790M/L858R mutant assessed as late apoptotic cells at 5 nM measured after 72 hrs by Annexin-V-FITC/propidium iodide staining based flow cytometry (reference value: 0.13%); format: functional
# NCI-H1975 [10] = experiment: Antiproliferative activity against human NCI-H1975 cells harboring EGFR T790M/L858R mutant by MTT assay; format: functional, cell-based
# NCI-H1975 [11] = experiment: Induction of apoptosis in human NCI-H1975 cells harboring EGFR T790M/L858R mutant assessed as early apoptotic cells at 5 nM measured after 48 hrs by Annexin-V-FITC/propidium iodide staining based flow cytometry (reference value: 0.82%); format: functional
# NCI-H1975 [12] = experiment: Induction of mitochondrial membrane potential loss in human NCI-H1975 cells harboring EGFR T790M/L858R mutant assessed as cells with intact mitochondrial membrane potential at 1 nM measured after 24 hrs by JC1 staining based fluorescence microscopic analysis (reference value: 94.51%); format: functional
# [13] = Tmax in Sprague-Dawley rat at 10 mg/kg, po administered as single dose; format: ADME, organism-based; conditions: in vivo
# NCI-H1975 [14] = experiment: Induction of apoptosis in human NCI-H1975 cells harboring EGFR T790M/L858R mutant assessed as viable cells at 10 nM measured after 48 hrs by Annexin-V-FITC/propidium iodide staining based flow cytometry (reference value: 98.63%); format: functional; conditions: read-out: Activity
# L02 = experiment: Cytotoxicity against human L02 cells assessed as reduction in cell viability by MTT assay; format: cell-based
# NCI-H1975 [15] = experiment: Induction of apoptosis in human NCI-H1975 cells harboring EGFR T790M/L858R mutant assessed as viable cells at 10 nM measured after 72 hrs by Annexin-V-FITC/propidium iodide staining based flow cytometry (reference value: 98.66%); format: functional; conditions: read-out: Activity
# [16] = Half life in Sprague-Dawley rat at 10 mg/kg, po administered as single dose; format: ADME, organism-based; conditions: in vivo
# [17] = target: Epidermal growth factor receptor (Homo sapiens, UniProt P00533, L858R); experiment: Inhibition of human recombinant GST-tagged EGFR L858R mutant expressed in baculovirus expression system using tyrosine 4 peptide as substrate after 60 mins in presence of ATP FRET based Z'-LYTE assay
# Chain of Epidermal growth factor receptor (Homo sapiens, UniProt P00533, L858R) (P00533 25-1210 L858R limits assumed): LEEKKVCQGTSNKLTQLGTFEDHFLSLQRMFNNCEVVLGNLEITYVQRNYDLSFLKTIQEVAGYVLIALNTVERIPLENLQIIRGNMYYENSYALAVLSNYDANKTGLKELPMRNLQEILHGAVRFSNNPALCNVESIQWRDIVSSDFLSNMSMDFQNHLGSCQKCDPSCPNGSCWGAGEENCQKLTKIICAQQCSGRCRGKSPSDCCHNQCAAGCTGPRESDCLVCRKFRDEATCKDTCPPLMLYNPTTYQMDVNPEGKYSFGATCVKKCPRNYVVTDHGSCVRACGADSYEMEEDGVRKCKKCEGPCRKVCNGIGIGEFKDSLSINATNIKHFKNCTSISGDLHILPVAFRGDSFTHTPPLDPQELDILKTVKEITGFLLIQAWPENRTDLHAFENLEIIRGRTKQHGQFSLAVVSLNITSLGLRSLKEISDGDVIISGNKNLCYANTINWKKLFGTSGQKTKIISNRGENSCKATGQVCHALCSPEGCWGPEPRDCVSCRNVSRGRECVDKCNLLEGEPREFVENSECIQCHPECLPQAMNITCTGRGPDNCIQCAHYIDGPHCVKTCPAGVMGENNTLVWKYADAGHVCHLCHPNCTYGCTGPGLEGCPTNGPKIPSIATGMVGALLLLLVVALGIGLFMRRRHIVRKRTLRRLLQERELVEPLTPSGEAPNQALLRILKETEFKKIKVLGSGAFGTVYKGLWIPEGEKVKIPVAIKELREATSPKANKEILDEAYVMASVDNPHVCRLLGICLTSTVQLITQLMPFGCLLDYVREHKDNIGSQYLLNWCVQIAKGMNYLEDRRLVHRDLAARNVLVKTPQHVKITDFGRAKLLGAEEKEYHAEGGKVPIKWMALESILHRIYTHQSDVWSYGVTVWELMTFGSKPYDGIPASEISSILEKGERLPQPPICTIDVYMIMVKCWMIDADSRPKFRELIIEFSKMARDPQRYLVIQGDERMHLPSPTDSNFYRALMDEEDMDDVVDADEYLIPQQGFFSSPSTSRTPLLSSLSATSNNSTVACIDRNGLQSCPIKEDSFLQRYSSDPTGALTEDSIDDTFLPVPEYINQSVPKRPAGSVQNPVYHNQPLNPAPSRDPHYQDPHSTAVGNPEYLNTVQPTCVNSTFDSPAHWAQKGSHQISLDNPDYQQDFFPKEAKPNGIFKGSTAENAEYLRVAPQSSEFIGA
# [18] = Selectivity ratio of IC50 for human L02 cells to IC50 for antiproliferative activity against human NCI-H1975 cells; format: toxicity, cell-based; conditions: L02 cells versus NCI-H1975 cells, read-out: Ratio IC50
# [19] = Oral bioavailability in Sprague-Dawley rat at 10 mg/kg administered as single dose; format: ADME, organism-based; conditions: in vivo
# NCI-H1975 [20] = experiment: Induction of apoptosis in human NCI-H1975 cells harboring EGFR T790M/L858R mutant assessed as late apoptotic cells at 5 nM measured after 48 hrs by Annexin-V-FITC/propidium iodide staining based flow cytometry (reference value: 0.04%); format: functional
# [21] = Selectivity ratio of IC50 for HK-2 cells to IC50 for antiproliferative activity against human NCI-H1975 cells
# NCI-H1975 [22] = experiment: Induction of mitochondrial membrane potential loss in human NCI-H1975 cells harboring EGFR T790M/L858R mutant assessed as cell population with mitochondrial membrane potential collapse at 1 nM measured after 24 hrs by JC1 staining based fluorescence microscopic analysis (reference value: 5.49%); format: functional
# NCI-H1975 [23] = experiment: Antimigratory activity against human NCI-H1975 cells harboring EGFR T790M/L858R mutant assessed as inhibition of cell migration at 9 nM measured after 48 hrs by phase contrast microscopic analysis relative to control; format: functional
# NCI-H1975 [24] = experiment: Induction of mitochondrial membrane potential loss in human NCI-H1975 cells harboring EGFR T790M/L858R mutant assessed as cells with intact mitochondrial membrane potential at 5 nM measured after 24 hrs by JC1 staining based fluorescence microscopic analysis (reference value: 94.51%); format: functional
# NCI-H1975 [25] = experiment: Induction of apoptosis in human NCI-H1975 cells harboring EGFR T790M/L858R mutant assessed as necrotic cells at 1 nM measured after 72 hrs by Annexin-V-FITC/propidium iodide staining based flow cytometry (reference value: 0.49%); format: functional
# NCI-H1975 [26] = experiment: Antitumor activity against human NCI-H1975 cells harboring EGFR T790M/L858R mutant xenografted in nude mouse assessed as tumor growth inhibition at 15 mg/kg, po administered once daily for 7 days relative to control; format: functional; conditions: Mus musculus, NCI-H1975, po, 168 h, time 7 day, read-out: TGI
# NCI-H1975 [27] = experiment: Induction of apoptosis in human NCI-H1975 cells harboring EGFR T790M/L858R mutant assessed as early apoptotic cells at 1 nM measured after 72 hrs by Annexin-V-FITC/propidium iodide staining based flow cytometry (reference value: 0.72%); format: functional
# NCI-H1975 [28] = experiment: Induction of apoptosis in human NCI-H1975 cells harboring EGFR T790M/L858R mutant assessed as necrotic cells at 5 nM measured after 48 hrs by Annexin-V-FITC/propidium iodide staining based flow cytometry (reference value: […]); format: functional
# [29] = AUC (0 to t) in Sprague-Dawley rat at 10 mg/kg, po administered as single dose; format: ADME, organism-based; set-up: dose 10 mg/kg; conditions: in vivo
# [30] = Clearance in Sprague-Dawley rat at 2 mg/kg, iv administered as single dose; format: ADME, organism-based; conditions: in vivo
# [31] = Cmax in Sprague-Dawley rat at 10 mg/kg, po administered as single dose; format: ADME, organism-based; set-up: route oral, dose 10 mg/kg; conditions: in vivo
# Chain of Epidermal growth factor receptor (Homo sapiens, UniProt P00533, L858R/T790M) (P00533 25-1210 T790M/L858R limits assumed): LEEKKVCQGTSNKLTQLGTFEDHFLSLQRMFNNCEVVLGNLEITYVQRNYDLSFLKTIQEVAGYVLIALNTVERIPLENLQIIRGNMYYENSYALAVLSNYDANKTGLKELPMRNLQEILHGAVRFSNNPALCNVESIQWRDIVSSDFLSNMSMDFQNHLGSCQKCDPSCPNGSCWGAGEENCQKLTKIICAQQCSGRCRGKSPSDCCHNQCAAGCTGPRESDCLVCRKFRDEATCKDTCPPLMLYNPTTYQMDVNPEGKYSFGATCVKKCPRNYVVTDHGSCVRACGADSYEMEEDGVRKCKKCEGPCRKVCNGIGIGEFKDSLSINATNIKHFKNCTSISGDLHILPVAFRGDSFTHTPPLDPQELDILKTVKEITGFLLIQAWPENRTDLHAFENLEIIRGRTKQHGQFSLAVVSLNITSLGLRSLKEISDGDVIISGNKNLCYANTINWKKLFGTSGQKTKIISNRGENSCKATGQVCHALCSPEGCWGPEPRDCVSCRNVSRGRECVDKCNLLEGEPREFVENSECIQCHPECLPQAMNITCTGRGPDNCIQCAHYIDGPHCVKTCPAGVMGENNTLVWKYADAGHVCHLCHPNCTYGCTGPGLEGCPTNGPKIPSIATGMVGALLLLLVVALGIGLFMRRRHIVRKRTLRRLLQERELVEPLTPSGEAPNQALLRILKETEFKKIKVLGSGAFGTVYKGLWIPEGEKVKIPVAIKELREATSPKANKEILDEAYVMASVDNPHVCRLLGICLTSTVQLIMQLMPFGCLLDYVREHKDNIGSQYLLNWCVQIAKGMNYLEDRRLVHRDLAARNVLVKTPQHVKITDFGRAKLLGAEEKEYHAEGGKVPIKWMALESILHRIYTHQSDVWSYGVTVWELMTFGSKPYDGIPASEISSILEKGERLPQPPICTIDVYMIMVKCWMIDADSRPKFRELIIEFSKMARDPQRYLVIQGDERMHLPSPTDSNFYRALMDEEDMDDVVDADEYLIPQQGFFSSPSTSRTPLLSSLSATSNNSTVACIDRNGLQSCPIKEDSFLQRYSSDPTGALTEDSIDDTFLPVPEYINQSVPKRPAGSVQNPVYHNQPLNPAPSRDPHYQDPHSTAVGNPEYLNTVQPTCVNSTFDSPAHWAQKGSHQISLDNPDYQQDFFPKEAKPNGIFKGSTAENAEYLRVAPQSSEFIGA
structure (smiles),measurement,setting,value
C=CC(=O)Nc1cc(Nc2nccc(-c3cn(C4CC4)c4ccccc34)n2)c(OC)cc1[S+]([O-])CCN(C)C (configuration not stated),IC50,[1],0.26 nM
same,Ratio IC50,[2],755
same,Activity,NCI-H1975 [3],Dose-dependent effect
same,inhibition at 0.003 µM,NCI-H1975 [4],53%
same,Activity,NCI-H1975 [5],1.64%
same,Activity,NCI-H1975 [6],15.92%
same,selectivity ratio,[7],383
same,Activity,NCI-H1975 [8],5.38%
same,Activity,NCI-H1975 [9],17.07%
same,IC50,NCI-H1975 [10],8 nM
same,Activity,NCI-H1975 [11],21.73%
same,Activity,NCI-H1975 [12],80.71%
same,Tmax,[13],1.67 h
same,viability at 0.01 µM,NCI-H1975 [14],41.1%
same,IC50,L02,4670 nM
same,viability at 0.01 µM,NCI-H1975 [15],27.4%
same,half-life,[16],2.51 h
same,IC50,[17],1.1 nM
same,selectivity ratio,[18],584
same,bioavailability,[19],40.4%
same,Activity,NCI-H1975 [20],3.64%
same,Ratio IC50,[21],733
same,Activity,NCI-H1975 [22],19.29%
same,inhibition at 0.009 µM,NCI-H1975 [23],74%
same,Activity,NCI-H1975 [24],72.38%
same,Activity,NCI-H1975 [25],9.52%
same,inhibition in vivo at 15 mg/kg,NCI-H1975 [26],93.3%
same,Activity,NCI-H1975 [27],17.25%
same,Activity,NCI-H1975 [28],7.42%
same,AUC(0-t),[29],676 ng·h/mL
same,clearance,[30],98.1 mL/min/kg
same,Cmax,[31],203 ng/mL

# — ChEMBL document CHEMBL4706659, “Design, synthesis and biological evaluation of novel 2,4-diaryl pyrimidine derivatives as selective EGFR inhibitors” (Eur J Med Chem, 2021)
